Paper PMC11423305, “Structure-Based Design of CBP/EP300 Degraders: When Cooperativity Overcomes Affinity” (JACS Au, 2024)
Read-outs that look alike come from different tables or passages of the source.

Key:
CBP-BRD [1] = molecular target: T1, CBP-BRD (Homo sapiens, UniProt Q92793); assay: BROMOscan ligand binding site-directed competition assay, CBP; set-up: T7 phage display fusion with DNA tag for qPCR; purchased Eurofins Discovery (BROMOscan service); host or cells: E. coli infected with T7 phage; details: for Kd: BROMOscan; for LE CBP (ligand efficiency): LE = 1.4(pIC50)/N
Experimental: (§1) 2. Methods and General Procedures […]
(§2) KD values were determined using BROMOscan™ technology, carried out by Eurofins […]
(§3) Discovery according to their standard protocol. Briefly E. coli were infected with T7 phage […]
(§4) strains displaying bromodomains and bromodomain protein was subsequently purified […]
(§5) through lysis, centrifugation and filtration. Affinity resins were generated by incubation of […]
(§6) streptavidin-coated magnetic beads with biotinylated small molecules or acetylated […]
(§7) peptide ligands. Binding reactions were assembled by combining the bromodomains and […]
(§8) liganded affinity beads in binding buffer (17 % SeaBlock, 0.33x PBS, 0.04 % Tween 20, […]
(§9) 0.02 % BSA, 0.004 % sodium azide and 7.4 mM DTT) with compounds (11-point, 3-fold […]
(§10) dilution series) added to give a final DMSO concentration of 0.09 %. Assay plates were […]
(§11) incubated for 1 h, prior to washing and elution of beads. The bromodomain concentration […]
(§12) in the eluates was measured by qPCR of the DNA tag on the bromodomain.
(§13) KD values were calculated with a standard dose-response curve fitted using the Hill […]
(§14) Response = Background + Signal − Background […]
(§15) The Hill Slope was set to -1 and curves fitted using a non-linear least square fit with the Levenberg-Marquardt algorithm.
(§16) Ligand efficiency (LE) was calculated as follows: LE = 1.4(pIC50)/N

EP300-BRD = molecular target: T2, EP300-BRD (Homo sapiens, UniProt Q09472); assay: BROMOscan ligand binding site-directed competition assay, EP300; details: for Kd: BROMOscan; for LE EP300 (ligand efficiency): LE = 1.4(pIC50)/N
T2 construct: T7 phage display fusion with DNA tag for qPCR; purchased Eurofins Discovery (BROMOscan service); host or cells: E. coli infected with T7 phage
T2 sequence (Q09472 1049-1156 limits assumed): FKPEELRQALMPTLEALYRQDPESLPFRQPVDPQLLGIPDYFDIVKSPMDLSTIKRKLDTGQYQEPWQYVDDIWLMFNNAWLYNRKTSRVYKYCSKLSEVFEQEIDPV
Experimental: as §1, §2, §3, §4, §5, §6, §7, §8, §9, §10, §11, §12, §13, §14, §15, §16

[2] = molecular target: CRBN and CBP catalytic core (Homo sapiens, UniProt Q92793+Q96SW2); assay: FluoPPI cellular ternary complex formation, CBP catalytic core; assay type: cell-based; details: U2OS cells, 6 h
CBP = molecular target: T3, CBP (Homo sapiens, UniProt Q92793); assay: Quantification of CBP degradation by Western blotting in LP1 cells; assay type: cell-based; details: 16 h, Western blot; for % remaining CBP: 5 μM compound
T3 construct: quantification of CBP and EP300 levels by Western blotting following 16 h treatment of LP1 cells; endogenous in cells; host or cells: LP1 cells
T3 sequence (Q92793 whole entry): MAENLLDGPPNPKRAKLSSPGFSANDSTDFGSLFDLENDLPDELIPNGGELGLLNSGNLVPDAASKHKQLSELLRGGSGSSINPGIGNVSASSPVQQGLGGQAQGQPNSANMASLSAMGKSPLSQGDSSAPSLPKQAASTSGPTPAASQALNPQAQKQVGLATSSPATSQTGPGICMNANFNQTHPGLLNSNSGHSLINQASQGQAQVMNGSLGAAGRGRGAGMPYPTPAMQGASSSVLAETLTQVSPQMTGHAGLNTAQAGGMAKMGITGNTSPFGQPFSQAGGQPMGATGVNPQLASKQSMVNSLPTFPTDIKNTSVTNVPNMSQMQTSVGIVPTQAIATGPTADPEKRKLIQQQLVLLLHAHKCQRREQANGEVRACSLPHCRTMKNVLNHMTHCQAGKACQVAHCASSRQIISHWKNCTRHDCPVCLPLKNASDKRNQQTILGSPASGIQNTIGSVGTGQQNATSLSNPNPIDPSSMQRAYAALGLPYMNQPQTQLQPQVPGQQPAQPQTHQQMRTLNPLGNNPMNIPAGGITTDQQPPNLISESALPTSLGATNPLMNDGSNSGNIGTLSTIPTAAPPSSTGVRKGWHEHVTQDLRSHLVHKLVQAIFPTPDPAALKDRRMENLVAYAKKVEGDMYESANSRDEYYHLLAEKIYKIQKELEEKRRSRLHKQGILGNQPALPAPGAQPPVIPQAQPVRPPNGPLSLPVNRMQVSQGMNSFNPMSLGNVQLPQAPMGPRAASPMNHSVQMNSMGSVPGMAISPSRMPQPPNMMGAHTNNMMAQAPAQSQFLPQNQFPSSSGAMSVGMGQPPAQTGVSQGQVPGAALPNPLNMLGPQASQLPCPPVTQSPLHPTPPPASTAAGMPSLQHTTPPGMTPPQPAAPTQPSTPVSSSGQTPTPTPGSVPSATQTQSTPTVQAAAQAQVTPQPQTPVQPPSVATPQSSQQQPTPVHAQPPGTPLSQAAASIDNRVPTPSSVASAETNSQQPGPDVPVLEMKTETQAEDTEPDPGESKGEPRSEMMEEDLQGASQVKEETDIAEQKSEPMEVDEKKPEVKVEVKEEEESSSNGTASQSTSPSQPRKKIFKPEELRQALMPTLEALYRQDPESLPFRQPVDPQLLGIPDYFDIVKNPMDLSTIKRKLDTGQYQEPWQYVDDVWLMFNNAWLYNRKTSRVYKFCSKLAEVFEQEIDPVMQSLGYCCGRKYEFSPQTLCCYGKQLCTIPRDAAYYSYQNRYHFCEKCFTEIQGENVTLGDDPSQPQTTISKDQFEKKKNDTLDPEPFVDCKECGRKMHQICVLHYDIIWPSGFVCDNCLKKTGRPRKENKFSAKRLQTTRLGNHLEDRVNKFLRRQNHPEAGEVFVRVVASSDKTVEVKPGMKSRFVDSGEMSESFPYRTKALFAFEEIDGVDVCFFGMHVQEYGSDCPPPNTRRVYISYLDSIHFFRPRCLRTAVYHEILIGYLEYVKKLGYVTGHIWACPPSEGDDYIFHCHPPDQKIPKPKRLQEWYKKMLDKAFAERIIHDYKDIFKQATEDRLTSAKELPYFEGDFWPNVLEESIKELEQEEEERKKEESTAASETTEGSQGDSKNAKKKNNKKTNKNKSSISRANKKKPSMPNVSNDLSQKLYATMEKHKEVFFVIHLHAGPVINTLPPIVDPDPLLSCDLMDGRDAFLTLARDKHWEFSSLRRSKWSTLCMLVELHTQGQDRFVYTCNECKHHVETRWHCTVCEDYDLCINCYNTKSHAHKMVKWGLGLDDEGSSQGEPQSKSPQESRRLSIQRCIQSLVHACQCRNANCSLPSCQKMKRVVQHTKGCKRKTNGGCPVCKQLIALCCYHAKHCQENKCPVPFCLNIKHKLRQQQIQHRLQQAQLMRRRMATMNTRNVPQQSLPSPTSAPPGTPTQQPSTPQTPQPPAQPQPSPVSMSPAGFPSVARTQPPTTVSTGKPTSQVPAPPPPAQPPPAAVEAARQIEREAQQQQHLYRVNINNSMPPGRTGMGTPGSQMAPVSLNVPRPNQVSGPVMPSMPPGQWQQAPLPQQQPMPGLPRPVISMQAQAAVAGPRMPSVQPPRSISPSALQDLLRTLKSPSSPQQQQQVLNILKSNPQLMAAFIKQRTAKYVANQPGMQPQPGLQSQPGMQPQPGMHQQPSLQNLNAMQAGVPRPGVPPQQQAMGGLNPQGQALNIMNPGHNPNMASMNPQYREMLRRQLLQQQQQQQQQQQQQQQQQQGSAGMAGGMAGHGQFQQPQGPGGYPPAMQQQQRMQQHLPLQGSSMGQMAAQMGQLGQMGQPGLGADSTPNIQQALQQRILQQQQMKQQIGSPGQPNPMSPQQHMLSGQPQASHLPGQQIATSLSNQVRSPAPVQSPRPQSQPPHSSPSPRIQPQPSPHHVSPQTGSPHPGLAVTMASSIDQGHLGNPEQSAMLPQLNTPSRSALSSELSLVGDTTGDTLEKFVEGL
Experimental: (§17) LP1 cells were cultured in DMEM (Gibco, 41966-029) supplemented with 15 % FBS (Sigma, F9665); MM1S and LNCaP cells in RPMI 1640 ATCC modification (Gibco, […]
(§18) DMEM/F12 (Gibco, 11320074) supplemented with 1 % non-essential amino acids […]
(§19) additionally supplemented with 1 % penicillin/streptomycin (Gibco, 15070-063), and cells maintained in a humidified incubator with 5 % CO2 at 37 °C. The identity of all lines (except for MM1S which were recently purchased from ATCC) was authenticated by STR profiling (performed by Microsynth).
(§20) Quantification of CBP/EP300 degradation by Western blotting
(§21) LP1 cells plated on 6 well plates were treated with the stated compounds at a final concentration of 0.1 % DMSO for the stated time. Cells were harvested on ice, washed in PBS and lysed in RIPA buffer (50 mM tris pH 7.5, 2 mM EDTA, 150 mM NaCl, 0.5 % sodium deoxycholate, 1 % Triton X100) supplemented with cOmplete ™ protease inhibitor cocktail (Roche). Protein concentrations were determined using the Pierce ™ BCA Protein Assay Kit (Thermo Scientific, 23227) and equal amounts were separated on 4-12 % ExpressPl us™ PAGE gels (GenScript, M41215). Proteins were transferred to PVDF membranes, the membranes were blocked with 5 % milk (Merk Millipore, 115363) in PBS-T and proteins were stained with the following antibodies at 4 °C overnight: CBP […]
(§22) BRD4 (Bethyl Laboratories, A301-985A50, diluted 1:2000) and vinculin (Invitrogen, 42H89L44, diluted 1:1000). For detection, membranes were incubated for 1 h at room temperature with HRP-conjugated secondary antibodies (Southern Biotech, anti-rabbit […]
(§23) SuperSignal™ West Pico PLUS Chemiluminescent Substrate (Thermo Scientific, 34580) and the Vilber Fusion-FX7 imager. Bands were quantified using ImageJ software and protein levels normalized to protein from DMSO treated cells run on the same membrane. For dose response curves, data was fitted using a four -parameter dose-response curve in GraphPad Prism v. 9.5.1, where the top is fixed at 100 %. The DC50 was defined as the PROTAC concentration resulting in 50 % remaining protein. […]

EP300 = molecular target: T4, EP300 (Homo sapiens, UniProt Q09472); assay: Quantification of EP300 degradation by Western blotting in LP1 cells; assay type: cell-based; details: 16 h, Western blot; for % remaining EP300: 5 μM compound
T4 construct: quantification of CBP and EP300 levels by Western blotting following 16 h treatment of LP1 cells; endogenous in cells; host or cells: LP1 cells
T4 sequence (Q09472 whole entry): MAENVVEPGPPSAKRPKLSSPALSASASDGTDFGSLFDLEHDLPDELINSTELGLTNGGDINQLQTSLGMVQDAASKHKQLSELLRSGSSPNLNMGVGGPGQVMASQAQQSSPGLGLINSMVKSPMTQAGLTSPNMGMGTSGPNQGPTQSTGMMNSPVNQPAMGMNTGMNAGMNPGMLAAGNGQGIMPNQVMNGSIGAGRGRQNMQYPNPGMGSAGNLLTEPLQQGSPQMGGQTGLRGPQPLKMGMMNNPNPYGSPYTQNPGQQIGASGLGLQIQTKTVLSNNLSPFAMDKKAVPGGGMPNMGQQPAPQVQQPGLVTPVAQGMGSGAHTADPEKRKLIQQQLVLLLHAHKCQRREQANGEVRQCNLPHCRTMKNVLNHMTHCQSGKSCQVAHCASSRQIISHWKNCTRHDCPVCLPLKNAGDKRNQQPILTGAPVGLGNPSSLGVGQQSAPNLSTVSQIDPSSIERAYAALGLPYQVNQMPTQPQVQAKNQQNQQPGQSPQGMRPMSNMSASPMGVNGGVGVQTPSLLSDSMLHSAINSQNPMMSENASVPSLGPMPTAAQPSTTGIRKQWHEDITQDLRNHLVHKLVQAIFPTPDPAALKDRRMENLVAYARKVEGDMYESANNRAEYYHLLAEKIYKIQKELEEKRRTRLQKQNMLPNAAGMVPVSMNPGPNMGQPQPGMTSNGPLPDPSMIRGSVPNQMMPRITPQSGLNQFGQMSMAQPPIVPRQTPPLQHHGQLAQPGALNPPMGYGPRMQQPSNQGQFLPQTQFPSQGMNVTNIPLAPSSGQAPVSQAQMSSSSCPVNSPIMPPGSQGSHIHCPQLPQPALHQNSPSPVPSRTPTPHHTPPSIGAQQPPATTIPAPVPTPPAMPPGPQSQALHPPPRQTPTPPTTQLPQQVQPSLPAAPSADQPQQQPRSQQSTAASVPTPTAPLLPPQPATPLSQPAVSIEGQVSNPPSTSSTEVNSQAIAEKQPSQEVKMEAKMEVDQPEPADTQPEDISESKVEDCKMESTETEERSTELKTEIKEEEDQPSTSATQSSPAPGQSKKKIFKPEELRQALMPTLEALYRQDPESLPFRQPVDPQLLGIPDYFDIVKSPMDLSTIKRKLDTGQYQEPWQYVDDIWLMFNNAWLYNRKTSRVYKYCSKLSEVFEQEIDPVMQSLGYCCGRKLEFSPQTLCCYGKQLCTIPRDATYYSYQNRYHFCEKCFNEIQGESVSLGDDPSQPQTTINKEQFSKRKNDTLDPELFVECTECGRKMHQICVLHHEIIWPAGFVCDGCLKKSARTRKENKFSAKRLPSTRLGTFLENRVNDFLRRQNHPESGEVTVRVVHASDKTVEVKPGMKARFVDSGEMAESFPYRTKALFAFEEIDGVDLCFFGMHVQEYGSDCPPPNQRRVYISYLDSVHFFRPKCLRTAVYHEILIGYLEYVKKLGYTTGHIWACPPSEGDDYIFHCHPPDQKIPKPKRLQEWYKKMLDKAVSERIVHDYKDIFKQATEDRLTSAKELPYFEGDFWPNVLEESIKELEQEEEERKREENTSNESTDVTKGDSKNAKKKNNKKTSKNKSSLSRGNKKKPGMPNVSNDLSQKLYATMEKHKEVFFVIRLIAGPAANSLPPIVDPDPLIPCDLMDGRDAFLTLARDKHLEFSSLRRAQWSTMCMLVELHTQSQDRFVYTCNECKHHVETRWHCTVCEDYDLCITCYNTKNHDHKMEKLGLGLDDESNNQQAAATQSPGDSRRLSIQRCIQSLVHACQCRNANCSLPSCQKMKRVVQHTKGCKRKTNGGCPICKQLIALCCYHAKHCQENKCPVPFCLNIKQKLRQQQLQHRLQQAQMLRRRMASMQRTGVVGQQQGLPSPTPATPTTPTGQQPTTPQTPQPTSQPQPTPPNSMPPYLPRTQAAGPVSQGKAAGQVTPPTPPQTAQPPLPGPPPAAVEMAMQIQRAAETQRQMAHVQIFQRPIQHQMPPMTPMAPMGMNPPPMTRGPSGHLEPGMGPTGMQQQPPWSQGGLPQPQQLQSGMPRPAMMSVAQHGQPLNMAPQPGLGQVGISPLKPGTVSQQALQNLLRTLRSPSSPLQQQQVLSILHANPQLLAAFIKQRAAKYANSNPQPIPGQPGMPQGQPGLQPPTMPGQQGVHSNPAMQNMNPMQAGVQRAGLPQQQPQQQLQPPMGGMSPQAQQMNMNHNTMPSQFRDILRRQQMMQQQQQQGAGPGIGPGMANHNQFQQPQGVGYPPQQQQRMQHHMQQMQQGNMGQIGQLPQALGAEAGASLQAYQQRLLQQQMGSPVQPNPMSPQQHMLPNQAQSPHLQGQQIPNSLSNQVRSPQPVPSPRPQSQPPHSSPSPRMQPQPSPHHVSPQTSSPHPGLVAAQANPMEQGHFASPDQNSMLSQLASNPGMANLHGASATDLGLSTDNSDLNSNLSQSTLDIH
Experimental: as §17, §18, §19, §20, §21, §22, §23

CRBN and CBP-BRD = CRBN and CBP-BRD (Homo sapiens, UniProt Q92793+Q96SW2); assay: FluoPPI cellular ternary complex formation, CBP-BRD; assay type: cell-based; details: U2OS cells, 6 h
[3] = molecular target: T5, CBP-BRD:CRBN thalidomide binding domain ternary complex (Homo sapiens, UniProt Q92793+Q96SW2); assay: TR-FRET CBP-BRD:PROTAC:CRBN ternary complex formation; details: CBP-BRD and CRBN-thalidomide binding domain labeled with TR-FRET pair
T5 construct: GST-CBP (human, residues 1081-1197); the C-terminus of CRBN (human, residues 318-442); His6 with TEV cleavage site (N, cleaved yes); made in house; host or cells: Rosetta (DE3) cells (E. coli)
T5 sequence (Q92793 1081-1197): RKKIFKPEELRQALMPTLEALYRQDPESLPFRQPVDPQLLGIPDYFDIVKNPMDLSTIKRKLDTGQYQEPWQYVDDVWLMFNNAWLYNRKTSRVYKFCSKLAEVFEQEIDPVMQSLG
T5 sequence (Q96SW2 318-442): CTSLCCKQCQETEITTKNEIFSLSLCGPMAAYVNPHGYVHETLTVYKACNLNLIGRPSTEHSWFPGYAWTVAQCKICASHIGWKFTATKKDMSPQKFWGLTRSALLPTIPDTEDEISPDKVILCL
Experimental: (PMSF), and 1 mM EDTA) and lysed by sonication. The lysates were clarified by centrifugation (18,000 rpm, 4 °C, 1 h).
For GST-CBP the soluble proteins were loaded onto a column packed with glutathione sepharose 4B (GE Healthcare) and subsequently eluted with 10 mM reduced glutathione in buffer containing 20 mM Tris-HCl pH 8.0, and 150 mM NaCl. Finally, a size exclusion step (HiLoad 16/600 Superdex 200 pg column from GE Healthcare) was used to further purify the protein in buffer containing 50 mM HEPES pH 7.5 and 150 mM NaCl. For His-CRBN and His-CRBN-Avi(biotin), the soluble fractions were loaded onto the HisTrap FF crude column (GE Healthcare) and washed with lysis buffer supplemented with 50 mM imidazole. The proteins were eluted with a buffer containing 250 mM imidazole, 100 mM Tris-HCl pH 8.0 and 500 mM NaCl. For His-CRBN-Avi(biotin) only, recombinant TEV protease was used to cleave the His6-tag during overnight dialysis at 4 °C against buffer containing 100 mM Tris-HCl pH 8.0 and 500 mM NaCl. The dialyzed sample was passed through the HisTrap FF crude column to remove His6-tagged TEV protease and uncleaved protein. […]
The maximal control contained no PROTAC, the blank contained no SK-20 and no PROTAC – these were replaced by the appropriate buffer. […] The samples were incubated for 3 h (20 °C, dark) and the signal was detected using the Infinite M1000 plate reader (Tecan). After excitation at 317 nm, emission at 620 and 665 nm was recorded. […]
were determined according to the following equation:
activity (%) = ΔF ∗ 100 = F−Fb ∗ 100 , where Ft is the TR-FRET signal in the absence of any compound (maximal control, 100 % activity), Fb the TR-FRET signal in the absence of the GST -CBP (blank, 0 % activity) and F the TR -FRET signal in the presence of the compound. Dose -response curves were plotted in GraphPad Prism 10.2.3 and fitted with nonlinear regression “log(inhibitor) vs. normalized response – variable slope”, from which IC 50 values were determined. […]

CBP-BRD [4] = molecular target: T1, CBP-BRD; assay: TR-FRET competition with acetylated peptide binding to CBP-BRD, with and without CRBN (cooperativity); set-up: GST-CBP (human, residues 1081-1197); made in house; host or cells: Rosetta (DE3) cells (E. coli)

Structure (SMILES) | Kd (CBP-BRD [1]) [nM] | LE CBP (ligand efficiency) (CBP-BRD [1]) | Kd (EP300-BRD) [nM] | LE EP300 (ligand efficiency) (EP300-BRD) | % remaining CBP (CBP) [%] | % remaining EP300 (EP300) [%] | also measured
CC(=O)Nc1cc(NC(=O)c2ccco2)cc(C(=O)Nc2cccc3nnc(C)cc23)c1 [compound 1] | 19 | 0.34 | 23 | 0.33 |  |  | 
Cc1cc2c(NC(=O)c3cc(NC(=O)c4ccco4)cc(-c4ccn(C)n4)c3)cccc2nn1 [compound 2] | 8.7 | 0.33 | 9.9 | 0.33 |  |  | 
CC(=O)Nc1cc(C(=O)Nc2cccc3nnc(C)cc23)cc(-c2ccn(C)n2)c1 [compound 3] | 29 | 0.35 | 25 | 0.35 |  |  | 
Cc1cc2c(NC(=O)c3cc(NC(=O)CCCCCCCCCCCNc4cccc5c4C(=O)N(C4CCC(=O)NC4=O)C5=O)cc(-c4ccn(C)n4)c3)cccc2nn1 (stereo not shown) [compound 4] | 3300 |  | > 10000 |  | 21 | 43 | ternary complex formation in cells with CBP catalytic core [2]: able to induce ternary complex formation; ternary complex formation in cells with CRBN and CBP-BRD (CRBN and CBP-BRD): good ternary complex formation
Cc1cc2c(NC(=O)c3cc(NC(=O)CCCCCCCCNc4cccc5c4C(=O)N(C4CCC(=O)NC4=O)C5=O)cc(-c4ccn(C)n4)c3)cccc2nn1 (stereo not shown) [compound 6] |  |  |  |  | 83 | 87 | 
Cc1cc2c(NC(=O)c3cc(NC(=O)CCCCCCCCCCNc4ccc5c(c4)C(=O)N(C4CCC(=O)NC4=O)C5=O)cc(-c4ccn(C)n4)c3)cccc2nn1 (stereo not shown) [compound 7] |  |  |  |  | 30 | 69 | 
Cc1cc2c(NC(=O)c3cc(NC(=O)COCCOCCOCCNc4cccc5c4C(=O)N(C4CCC(=O)NC4=O)C5=O)cc(-c4ccn(C)n4)c3)cccc2nn1 (stereo not shown) [compound 8] |  |  |  |  | 81 | 95 | 
Cc1cc2c(NC(=O)c3cc(NC(=O)CCCCCCCN4CCN(c5ccc6c(c5)C(=O)N(C5CCC(=O)NC5=O)C6=O)CC4)cc(-c4ccn(C)n4)c3)cccc2nn1 (stereo not shown) [compound 9] | 28 |  | 45 |  | > 95 | > 95 | ternary complex formation in cells with CRBN and CBP-BRD (CRBN and CBP-BRD): good ternary complex formation
Cc1cc2c(NC(=O)c3cc(NC(=O)CCCCCCCCCCNc4cccc5c4C(=O)N(C4CCC(=O)N(C)C4=O)C5=O)cc(-c4ccn(C)n4)c3)cccc2nn1 (stereo not shown) [compound 10] |  |  |  |  |  |  | degradation of CBP (CBP; 1 μM): abrogated; degradation of EP300 (EP300; 1 μM): abrogated; ternary complex formation (TR-FRET) [3]: did not show cooperativity or ternary complex formation; IC50 (CBP-BRD [4]; absence of CRBN, read-out: CBP-BRD IC50 (binary, IC50[control])): 220 nM; IC50 (CBP-BRD [4]; presence of high concentrations of CRBN C-terminal thalidomide binding domain, read-out: ternary IC50 (IC50[CRBN])): 230 nM
